Experimental data reported in patent US9981005B2, “Methods for increasing DISC1 in a subject with schizophrenia or bipolar disorder by an antagonist inhibiting DISC1 binding to FBXW7” (The University Court of the University of Glasgow, priority 2013, dated 2018).
“Also recorded” adds a separate entry of the source. Where a SMILES comes first, the peptide text is derived from it. Where no end group is shown, it is not given here. [ ]: non-standard residue; d: D form. The star is where a group is joined. pT = C[C@@H](OP(=O)(O)O)[C@H](N)C(=O)O; NMeE = CN[C@@H](CCC(=O)O)C(=O)O; pS = N[C@@H](COP(=O)(O)O)C(=O)O; NMeD = CN[C@@H](CC(=O)O)C(=O)O; Cbz = O=C(OCc1ccccc1)*

Columns and labels:
FBXW7 = FBXW7 (Homo sapiens, UniProt Q969H0); assay: Peptides immobilised on membranes screened for the ability to bind FBXW7; assay type: binding
Chain of FBXW7 (Q969H0 whole entry): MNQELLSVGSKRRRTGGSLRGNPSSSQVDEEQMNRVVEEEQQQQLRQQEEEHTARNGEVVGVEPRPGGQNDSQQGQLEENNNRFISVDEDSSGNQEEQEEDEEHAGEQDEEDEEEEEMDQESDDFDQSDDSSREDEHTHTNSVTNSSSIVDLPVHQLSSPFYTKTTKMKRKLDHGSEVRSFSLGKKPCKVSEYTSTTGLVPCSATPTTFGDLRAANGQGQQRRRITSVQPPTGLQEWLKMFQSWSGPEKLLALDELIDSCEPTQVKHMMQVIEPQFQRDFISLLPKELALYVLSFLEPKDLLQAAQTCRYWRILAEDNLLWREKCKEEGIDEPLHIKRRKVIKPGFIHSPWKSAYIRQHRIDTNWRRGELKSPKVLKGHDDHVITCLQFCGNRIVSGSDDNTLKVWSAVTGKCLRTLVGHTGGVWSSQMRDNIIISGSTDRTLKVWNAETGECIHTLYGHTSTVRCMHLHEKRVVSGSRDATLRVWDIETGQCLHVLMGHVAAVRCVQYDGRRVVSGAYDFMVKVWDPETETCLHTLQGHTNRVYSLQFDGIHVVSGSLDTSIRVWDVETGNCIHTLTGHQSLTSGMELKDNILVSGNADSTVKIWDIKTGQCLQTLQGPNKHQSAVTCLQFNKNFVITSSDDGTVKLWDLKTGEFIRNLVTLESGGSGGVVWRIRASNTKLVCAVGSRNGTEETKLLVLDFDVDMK
Description: Peptides derived from DISC1 and containing the putative phospho-degron motif were immobilised on membranes and screened for the ability to bind FBXW7. […] (SEQ ID NO: 114).
The 7-mer peptide P-pT-P-P-G-pS-H (SEQ ID NO: 21) was used as the basis for further investigation. L- and D-forms of aspartic acid and glutamic acid (upper and lower case letters respectively) as well as N-methylated versions of each (designated “m”) were incorporated at positions 198 and 202.

[1] = tested on: DISC1 expression in HEK293 cells; assay: DISC1 expression in HEK293 cells treated with cell-permeable peptides, quantitative Western blotting; assay type: cell-based, human; conditions: for DISC1 up-regulation, time course: cell-permeable (N-terminal stearate) peptides at 100 μM, 0, 1, 2, 3 and 6 hours, FIG. 9
Experimental: Peptides modified at the N-terminal amino group with stearate moieties to render them cell permeable (Severn Biotech Ltd) were dissolved in sterile DMSO at a stock concentration of 100 mM.
HEK293 cells were seeded into 6 well plates and cultured until 70-80% confluent. Cell permeable peptides 139 and 142 were added at 100 μM. Cells were incubated at 37° C./5% C02. Cells were taken at 0, 1, 2, 3 and 6 hours post peptide addition. After treatment cells were washed briefly with ice cold PBS and lysed on ice using 3T3 lysis buffer (20 mM Hepes (pH 7.4), 50 mM NaCl, 50 mM NaF, 10% (v/v) glycerol, 1% (w/v) Triton X-100, 10 mM EGTA, 30 mM sodium pyrophosphate) containing protease and phosphatase inhibitors. Protein concentrations were assessed using Bradford assay. Cell lysates were separated by SDS-PAGE and levels of DISC1 expression determined by quantitative Western blotting using the Licor Odyssey imaging system. GAPDH was used as a control to confirm equal loading.
In a similar experiment, HEK293 were seeded into 6 well plates and cultured until 70-80% confluent. Cell-permeable peptides 139 and 142 were added over a concentration range: 10 μM, 30 μM, 50 μM, 100 μM in duplicate. Cells were incubated at 37° C./5% C02 for 3 hours. […] After treatment cells were washed briefly with ice cold PBS and lysed on ice as described above.
(§1) Lysates were boiled in Laemmli buffer for 2 minutes prior to SDS-PAGE. Lysates were loaded on to a precast 4-12% bis-tris gel (˜10 μg/well). Gels were resolved at 150V (constant) for 90 mins. Proteins were transferred to nitrocellulose membrane at 30V for 1 hour. Membranes were blocked in 5% Milk in 1×TBS-tween20 for 1 hour at room temperature. Primary antibodies were diluted in 1% milk in 1×TBS-tween20 and incubated overnight at 4° C. […] Protein bands were visulised using the Licor Odyssey scanner and analysed using Odyssey software (version 1.2). DISC-1 protein levels were analysed by densitometry and normalised against those of the loading control (GAPDH).

[2] = tested on: FBXW7 substrates Notch-1, c-Myc, c-Jun and cyclinE; assay: Expression levels of other FBXW7 substrates after peptide treatment, Western blot; assay type: cell-based, human; conditions: FIG. 11, specificity for the FBXW7-DISC1 interaction
Experimental: Lysates were boiled in Laemmli buffer for 2 minutes prior to SDS-PAGE. Lysates were loaded on to a precast 4-12% bis-tris gel (˜10 μg/well). Gels were resolved at 150V (constant) for 90 mins. Proteins were transferred to nitrocellulose membrane at 30V for 1 hour. Membranes were blocked in 5% Milk in 1×TBS-tween20 for 1 hour at room temperature. Primary antibodies were diluted in 1% milk in 1×TBS-tween20 and incubated overnight at 4° C. Membranes were washed three times with 1×TBS-tween20 and the appropriate secondary antibody (diluted using 1% milk in 1×TBS-tween20) was added for 45 mins at room temperature. Membranes were washed a further three times with 1×TBS-tween20 and once in 1×TBS. Protein bands were visulised using the Licor Odyssey scanner and analysed using Odyssey software (version 1.2). DISC-1 protein levels were analysed by densitometry and normalised against those of the loading control (GAPDH).

[3] = tested on: DISC1 levels in HEK293 cells; assay: MG132 treatment of HEK293 cells, Western blot for DISC1; assay type: cell-based, human; conditions: MG132 at various concentrations for 3 hours, FIG. 1
Experimental: The proteasome inhibitor MG132 (N-carbobenzoxyl-Leu-Leu-Leucinal) (Sigma) was dissolved in DMSO to make a stock of 10 mM and stored at −20° C. HEK293 cells were treated with MG132 at various concentrations for 3 hours. The cells were then lysed in 3T3 lysis buffer (20 mM Hepes (pH 7.4), 50 mM NaCl, 50 mM NaF, 10% (v/v) glycerol, 1% (w/v) Triton X-100, 10 mM EGTA, 30 mM sodium pyrophosphate supplemented with protease and phosphatase inhibitor cocktail (Roche)). Proteins were quantified and normalised for protein concentration followed by Western blot analysis for DISC1 and GAPDH.
as §1

Skp1-FBXW7 = target: T1, Skp1-FBXW7 (Homo sapiens, UniProt Q969H0); assay: Isothermal titration calorimetry (ITC); assay type: binding; conditions: ITC at 25° C.
T1 construct: human FBXW7 (residues 263-707); His6 (N, cleaved yes); made in house; host or cells: Escherichia coli
T1 sequence (Q969H0 263-707): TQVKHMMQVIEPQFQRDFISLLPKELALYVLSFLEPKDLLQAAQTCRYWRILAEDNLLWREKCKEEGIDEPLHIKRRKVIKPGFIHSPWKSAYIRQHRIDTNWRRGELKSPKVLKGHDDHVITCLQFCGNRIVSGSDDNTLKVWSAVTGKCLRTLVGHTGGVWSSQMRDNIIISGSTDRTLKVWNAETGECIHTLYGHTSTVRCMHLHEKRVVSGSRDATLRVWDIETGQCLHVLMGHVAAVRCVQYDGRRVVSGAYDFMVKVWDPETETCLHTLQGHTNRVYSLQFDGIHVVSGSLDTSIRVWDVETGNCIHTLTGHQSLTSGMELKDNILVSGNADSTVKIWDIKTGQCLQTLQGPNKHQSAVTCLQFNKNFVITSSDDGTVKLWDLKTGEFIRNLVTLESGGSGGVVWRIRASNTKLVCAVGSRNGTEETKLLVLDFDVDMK
Experimental: Affinity of DISC1 analogue peptides (or other binding inhibitors) for FBXW7 may be determined using ITC.
Protein samples are typically dialysed against a solution containing 20 mM HEPES-Na (pH 7.4), 200 mM NaCl, and 2 mM β-mercaptoethanol before combining. Typically, the concentrations of Skp1-FBXW7 and DISC1 peptides used in the assay are 50 μM and 1 mM, respectively.
Titration is performed at 25° C. with a NANO ITC System (TA Instruments, New Castle, Del.) and data analysed using the TA Nano Analyze software. Dissociation constants and their standard deviations are typically derived from two to three independent measurements.

Molecule | binding to FBXW7 (FBXW7) | DISC1 up-regulation, time course [1] | DISC1 up-regulation, dose dependence ([1]; cell-permeable peptides at 10 μM, 30 μM, 50 μM, 100 μM, 3 hours, FIG. 10) | effect on expression levels of the other FBXW7 substrates Notch-1, c-Myc, c-Jun and cyclinE [2] | DISC1 levels [3] | Kd (Skp1-FBXW7)
G-mE-P-P-G-mE-H (G[NMeE]PPG[NMeE]H) [Peptide 139] | retain or have improved binding to FBXW7 | Up-Regulate DISC1 Expression | dose-dependent | do not upregulate other FBXW7 substrates; also recorded: no effect |  | 
CC(C)C[C@@H](C=O)NC(=O)[C@H](CC(C)C)NC(=O)[C@H](CC(C)C)NC(=O)OCc1ccccc1 [MG132, N-carbobenzoxyl-Leu-Leu-Leucinal] (Cbz-Leu-Leu-Leu-aldehyde) |  |  |  |  | up-regulates DISC1 levels | 
CC(C)[C@H](N)C(=O)N1CCC[C@H]1C(=O)N1CCC[C@H]1C(=O)N[C@H](C(=O)N1CCC[C@H]1C(=O)N1CCC[C@H]1C(=O)NCC(=O)N[C@@H](COP(=O)(O)O)C(=O)N[C@@H](Cc1c[nH]cn1)C(=O)O)[C@@H](C)OP(=O)(O)O [VPPpTPPGpSH] (H-VPP[pT]PPG[pS]H-OH; N-terminus and C-terminus assumed) |  |  |  |  |  | ~1000 nM
G-mD-P-P-G-mE-H (G[NMeD]PPG[NMeE]H) [Peptide 142] | retain or have improved binding to FBXW7 | Up-Regulate DISC1 Expression |  | do not upregulate other FBXW7 substrates; also recorded: no effect |  | 
